Counter-ions that a name gives are not always drawn.
Each compound was assayed against T1, parathyroid cell calcium receptor (Bos taurus, UniProt P35384) (assay: cell-based). Settings: not given.
T1 sequence (P35384 21-1085 limits assumed): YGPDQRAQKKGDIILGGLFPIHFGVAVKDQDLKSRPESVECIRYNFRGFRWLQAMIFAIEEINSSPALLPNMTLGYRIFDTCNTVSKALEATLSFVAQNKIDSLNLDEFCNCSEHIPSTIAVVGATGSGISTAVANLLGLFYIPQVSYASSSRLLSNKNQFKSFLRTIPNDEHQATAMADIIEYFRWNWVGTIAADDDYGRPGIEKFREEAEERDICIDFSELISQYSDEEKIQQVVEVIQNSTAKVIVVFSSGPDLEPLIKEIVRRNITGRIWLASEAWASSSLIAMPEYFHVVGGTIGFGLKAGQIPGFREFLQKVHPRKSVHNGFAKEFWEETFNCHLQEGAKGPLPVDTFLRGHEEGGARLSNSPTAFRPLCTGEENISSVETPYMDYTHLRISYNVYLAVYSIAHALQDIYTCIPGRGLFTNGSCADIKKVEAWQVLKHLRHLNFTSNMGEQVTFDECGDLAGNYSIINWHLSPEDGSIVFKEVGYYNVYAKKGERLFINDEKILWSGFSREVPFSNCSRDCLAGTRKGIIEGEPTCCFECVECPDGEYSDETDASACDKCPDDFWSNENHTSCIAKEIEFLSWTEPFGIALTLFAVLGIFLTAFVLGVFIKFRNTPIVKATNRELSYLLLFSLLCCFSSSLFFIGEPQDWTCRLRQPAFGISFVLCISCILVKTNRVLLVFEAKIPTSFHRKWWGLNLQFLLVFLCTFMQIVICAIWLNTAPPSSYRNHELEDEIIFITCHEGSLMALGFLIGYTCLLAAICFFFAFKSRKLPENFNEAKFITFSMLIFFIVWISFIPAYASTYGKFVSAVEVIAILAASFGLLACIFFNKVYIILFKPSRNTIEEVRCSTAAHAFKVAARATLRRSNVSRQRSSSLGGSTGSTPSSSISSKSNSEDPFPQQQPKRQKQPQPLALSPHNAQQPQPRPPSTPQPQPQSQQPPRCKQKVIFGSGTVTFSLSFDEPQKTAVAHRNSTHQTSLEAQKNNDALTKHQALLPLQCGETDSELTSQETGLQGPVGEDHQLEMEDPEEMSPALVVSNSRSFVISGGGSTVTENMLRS
Type: cell-based

For CCCCCCCCCCCCCC(=O)O[C@@H]1[C@@H](C)[C@@]2(O)[C@@H](C=C(CO)C[C@]3(O)C(=O)C(C)=C[C@@H]23)[C@@H]2C(C)(C)[C@]12OC(C)=O [PMA, phorbol myristate acetate, reference compound], the “effect on mobilization of intracellular Ca^2+ elicited by molecular polycations” value was “depressed”.

Same assay, conditions: 1 μM

With CC1=C(C(=O)OC(C)C)C(c2cccc3nonc23)C([N+](=O)[O-])=C(C)N1 (single isomer, unassigned; (-)) [(-) 202-791, reference compound] the “effect on basal [Ca^2+]i or increases evoked by extracellular Ca^2+” value was “None of the dihydropyridines tested”.
For COC(=O)C1=C(C)NC(C)=C([N+](=O)[O-])C1c1ccccc1C(F)(F)F (stereo not shown) [BAY K 8644, reference compound], the “effect on basal [Ca^2+]i or increases evoked by extracellular Ca^2+” value was “None of the dihydropyridines tested”.
In the case of COC(=O)C1=C(C)NC(C)=C(C(=O)OC)C1c1ccccc1[N+](=O)[O-] [nifedipine, reference compound], the “effect on basal [Ca^2+]i or increases evoked by extracellular Ca^2+” value is reported as “None of the dihydropyridines tested”.

Same assay, conditions: 100 μM

In the case of COc1ccc([C@@H]2Sc3ccccc3N(CCN(C)C)C(=O)[C@@H]2OC(C)=O)cc1 [diltiazem, reference compound], the “effective at 100 μM (as verapamil and D-600)” value is reported as “effective”.

Same assay, conditions: 400 μM

N=C(N)NCCC[C@H](N)C(=O)NCCCNCCCNCCCCCNC(=O)[C@H](CC(N)=O)NC(=O)Cc1ccc(O)cc1O [Argiotoxin-636, reference compound] was tested, and the “increases in [Ca^2+]i” value was “did not elicit increases”.

For N=C(N)NCCC[C@H](N)C(=O)NCCCNCCCNCCCCCNC(=O)[C@H](CC(N)=O)NC(=O)Cc1ccc(O)cc1O [Argiotoxin-636, reference compound], the “potentiation of cytosolic Ca^2+ responses to extracellular Ca^2+” value was “did potentiate”.

Same assay, conditions: 500 μM

With CCCC(=O)N[C@@H](Cc1ccc(O)cc1)C(=O)NCCCCNCCCNCCCN [Philanthotoxin-433, reference compound] the “effect on intracellular Ca^2+” value was “without effect”.

Same assay, conditions: 100 to 300 μM

With N=C(N)NCCC[C@H](N)C(=O)NCCCNCCCNCCCCCNC(=O)[C@H](CC(N)=O)NC(=O)Cc1ccc(O)cc1O [Argiotoxin-636, reference compound] the “increases in [Ca^2+]i” value was “had no effect”.

Same assay, conditions: Table 6; bovine parathyroid cells; read-out: EC50 PARATHYROID

Compared with COc1cccc([C@H](C)NCCCc2ccccc2)c1 [NPS S-467], C[C@@H](NCCC(c1ccccc1)c1ccccc1)c1ccccc1 [R-Fendiline] is lower in EC50: greater than 30000 nM for the first, 9000 nM for the second. The second is the more potent here.

Same assay, conditions: Table 7; parathyroid cell calcium receptor; read-out: EC50

COc1ccc(OC)c([C@@H](C)NCCCc2ccccc2)c1 [7Z(R-)] and COc1ccc(OC)c([C@H](C)NCCCc2ccccc2)c1 [7Z(S-)] cannot be ordered by EC50: greater than 30000 nM for the first, greater than 100000 nM for the second.

Going from c1ccc(CNCCC(c2ccccc2)c2ccccc2)cc1 [Compound 1A] to C[C@@H](NCCC(c1ccccc1)c1ccccc1)c1ccccc1 [R-Fendiline], the EC50 falls from 166000 nM to 9000 nM (18-fold). The second is the more potent here.

Going from CC(NCCCc1ccccc1)c1ccccc1 (stereo not shown) [Compound 1D] to CC(NCCCCc1ccccc1)c1ccccc1 (stereo not shown) [Compound 1S], the EC50 rises from 48000 nM to 128000 nM (2.7-fold).

CCC(NCCC(c1ccccc1)c1ccccc1)c1ccccc1 (stereo not shown) [Compound 1E] and C[C@H](NCCC(c1ccccc1)c1ccccc1)c1ccccc1 [S-Fendiline] cannot be ordered by EC50: 123000 nM for the first, greater than 15000 nM for the second.

C[C@H](NCCCc1ccccc1)C1CCCCC1 [Compound 7Y] and COc1cccc([C@H](C)NCCCc2ccccc2)c1 [NPS S-467] cannot be ordered by EC50: greater than 30000 nM for the first, greater than 30000 nM for the second.

COc1cccc([C@H](C)NCCCc2ccc(C)cc2)c1 [Compound 8Y] and COc1cccc([C@H](C)NCCCc2ccc(OC)c(OC)c2)c1 [Compound 20K] cannot be ordered by EC50: greater than 30000 nM for the first, greater than 30000 nM for the second.

Same assay, conditions: Table 8 (arylalkylamine calcimimetics); parathyroid cell calcium receptor; read-out: EC50

First: COc1cccc([C@@H](C)NC2CCc3ccccc3C2)c1 (stereo partly shown) [5W/5Y]
Second: COc1cccc([C@@H](C)NC2CCN(Cc3ccccc3)CC2)c1 [Compound 20F]
The EC50 of the first is higher: 3600 nM for the first, less than 1000 nM for the second. The second is the more potent here.

CC(NCCC(c1ccccc1)c1ccccc1)c1cccc2ccccc12 (stereo not shown) [Compound 3U] and C[C@@H](NCc1ccc2ccccc2c1)c1cccc2ccccc12 [Compound 9C] are within 1.5-fold of each other in EC50: 640 nM for the first, 600 nM for the second.

First: COc1cccc([C@@H](C)NCCCc2cccc(F)c2)c1 [Compound 4N]
Second: COc1cccc([C@@H](C)NCCCc2cccc(C)c2)c1 [Compound 12V, (R)-N-3-(3-Methylphenyl)-1-propyl-3-methoxy-α-methylbenzylamine hydrochloride]
The EC50 of the first is 1.9-fold higher: 800 nM for the first, 420 nM for the second.

Compared with COc1cccc([C@@H](C)NCCCc2ccc(F)cc2)c1 [Compound 4P], COc1cccc([C@@H](C)NCCCc2ccc(C)cc2)c1 [Compound 8X] is 2.1-fold lower in EC50: 1600 nM for the first, 760 nM for the second. The second is the more potent here.

COc1cccc(C(C)NCCC(C)c2ccccc2Cl)c1 (stereo not shown) [Compound 4Y] and COc1cccc([C@@H](C)NCCCc2ccccc2C)c1 [Compound 12U, (R)-N-3-(2-Methylphenyl)-1-propyl-3-methoxy-α-methylbenzylamine hydrochloride] are within 1.5-fold of each other in EC50: 1300 nM for the first, 1200 nM for the second.

Compared with COc1cccc(C(C)NC(C)c2cccc3ccccc23)c1 (stereo not shown) [Compound 6E], COc1ccc([C@H](C)N[C@H](C)c2cccc3ccccc23)cc1 [Compound 14V] is 1.6-fold lower in EC50: 2700 nM for the first, 1700 nM for the second. The second is the more potent here.

CCOc1cccc([C@@H](C)NCCCc2ccccc2)c1 [Compound 6R] and CCOc1cccc([C@@H](C)NCCCc2ccccc2Cl)c1 [Compound 6T] are within 1.5-fold of each other in EC50: 3400 nM for the first, 2900 nM for the second.

First: COc1cccc([C@@H](C)NCCCc2ccccc2OC)c1 [Compound 8U, (R)-(+)-N-3-(2-Methoxyphenyl)-1-propyl-3-methoxy-α-methylbenzylamine hydrochloride]
Second: COc1cccc([C@@H](C)NCCCc2ccccc2C(F)(F)F)c1 [Compound 21O]
The EC50 of the first is 1.7-fold higher: 440 nM for the first, 260 nM for the second. The second is the more potent here.

First: CC(C)C(N[C@H](C)c1cccc2ccccc12)c1ccc2ccccc2c1 (stereo partly shown) [Compound 10F]
Second: C[C@H](CCc1ccccc1)N[C@H](C)c1cccc2ccccc12 [Compound 21F]
The EC50 of the first is 2.3-fold higher: 890 nM for the first, 380 nM for the second.

Going from CCOC(=O)COc1cccc([C@@H](C)NCc2ccc3ccccc3c2)c1 [Compound 11D] to CCOc1ccc(CN[C@H](C)c2cccc3ccccc23)cc1 [Compound 16W], the EC50 falls from 1800 nM to 590 nM (3.1-fold).

Going from CCCOc1ccc(CN[C@H](C)c2cccc3ccccc23)cc1 [Compound 13Q] to COc1ccc(CN[C@H](C)c2cccc3ccccc23)cc1 [Compound 13U], the EC50 falls from roughly 800 nM to 190 nM (4.2-fold). The second is the more potent here.

First: C[C@@H](NCc1ccc(Cl)c(Cl)c1)c1cccc2ccccc12 [Compound 13R]
Second: Cc1ccc(CN[C@H](C)c2cccc3ccccc23)cc1C [Compound 16V]
The EC50 of the first is higher: 250 nM for the first, less than 130 nM for the second. The second is the more potent here.

C[C@@H](NCc1ccc(C(F)(F)F)cc1)c1cccc2ccccc12 [Compound 13S] and CSc1ccc(CN[C@H](C)c2cccc3ccccc23)cc1 [Compound 16X] cannot be ordered by EC50: less than 130 nM for the first, 100 nM for the second.

C[C@@H](NCc1ccc2c(c1)OCCO2)c1cccc2ccccc12 [Compound 13X] and C[C@@H](NCc1ccc2c(c1)OCO2)c1cccc2ccccc12 [Compound 16R] cannot be ordered by EC50: less than 750 nM for the first, 360 nM for the second.

COc1ccc(CN[C@H](C)c2cccc3ccccc23)cc1C [Compound 16Q] and COc1ccc(CN[C@H](C)c2cccc3ccccc23)cc1F [Compound 16T] are the same in EC50: 40 nM for the first, 40 nM for the second.

Compared with COc1ccc([C@@H](C)N[C@H](C)c2cccc3ccccc23)cc1Cl [Compound 17X, (R,R)-N-(1-Ethyl-4'-methoxy-3'-chlorophenyl)-1-(1-naphthylethyl)amine], C[C@@H](CCc1ccccc1)N[C@H](C)c1cccc2ccccc12 [Compound 21G] is 55-fold higher in EC50: 20 nM for the first, 1100 nM for the second.

COc1ccc(CCCN[C@H](C)c2cccc(OC)c2)cc1 [Compound 20I] and COc1cccc([C@@H](C)NCCCc2ccc(C(F)(F)F)cc2)c1 [Compound 21Q] cannot be ordered by EC50: greater than 1000 nM for the first, 1400 nM for the second.

COc1cccc([C@@H](C)NCCCc2ccc(OC)c(OC)c2)c1 [Compound 20J] and CCC(CCc1ccccc1)NC(C)c1cccc(OC)c1 (stereo not shown) [Compound 20S] cannot be ordered by EC50: greater than 3000 nM for the first, 4200 nM for the second.

COc1cccc(C(C)NC(C)CCc2ccccc2)c1 (stereo not shown) [Compound 20R] and COc1cccc([C@@H](C)N[C@H](C)CCc2ccccc2)c1 [Compound 21D] are within 1.5-fold of each other in EC50: 2400 nM for the first, 3000 nM for the second.

Same assay, conditions: bovine parathyroid cells, or Xenopus oocytes expressing calcium receptors

With N[C@@]1(C(=O)O)CC[C@@H](C(=O)O)C1 (relative stereo) [trans-ACPD, reference compound] the “response to mGluR agonists” value was “did not respond”.

Same assay, conditions: in words

In the case of CC(NCCCc1ccccc1)c1ccccc1 (stereo not shown) [Compound 1D], the relative potency is reported as “nearly as potent as the parent molecule”.
In the case of COc1cccc(C(C)NCCC(c2ccccc2)c2ccccc2)c1 (stereo not shown) [meta-Methoxyfendiline], the relative potency is reported as “as potent as NPS 467”.

Same assay, conditions: ionomycin 1 μM, 1799 5 μM

With C[C@H](CCC(=O)O)C[C@H](C)C[C@H](C)C(=O)/C=C(\O)[C@H](C)C[C@H](C)C/C=C/[C@@H](C)[C@@H](O)[C@@H](C)[C@@H](O)C[C@@H]1CC[C@@](C)([C@H]2CC[C@@](C)([C@@H](C)O)O2)O1 [ionomycin, reference compound] the “effect on [Ca^2+]i response to extracellular Mg^2+” value was “blocks the response to Mg^2+”.
With O=C(CC(O)(C(F)(F)F)C(F)(F)F)CC(O)(C(F)(F)F)C(F)(F)F [molecule 1799, reference compound] the “effect on [Ca^2+]i response to extracellular Mg^2+” value was “without effect on the response to Mg^2+”.

Same assay, conditions: parathyroid cell calcium receptor; […]; read-out: EC50

COc1cccc([C@@H](C)NCCCc2ccccc2OC)c1 [Compound 8U, (R)-(+)-N-3-(2-Methoxyphenyl)-1-propyl-3-methoxy-α-methylbenzylamine hydrochloride] and COc1cccc([C@@H](C)NCCCc2ccccc2C)c1 [Compound 12U, (R)-N-3-(2-Methylphenyl)-1-propyl-3-methoxy-α-methylbenzylamine hydrochloride] cannot be ordered by EC50: less than 5000 nM for the first, less than 5000 nM for the second.

COc1cccc([C@@H](C)NCCCc2cccc(C)c2)c1 [Compound 12V, (R)-N-3-(3-Methylphenyl)-1-propyl-3-methoxy-α-methylbenzylamine hydrochloride] and COc1ccc([C@@H](C)N[C@H](C)c2cccc3ccccc23)cc1Cl [Compound 17X, (R,R)-N-(1-Ethyl-4'-methoxy-3'-chlorophenyl)-1-(1-naphthylethyl)amine] cannot be ordered by EC50: less than 5000 nM for the first, less than 5000 nM for the second.
